One experiment has as its system COX-2. The experiment is described as follows: COX-2 production in LPS-stimulated RAW 264.7 cells. Particulars: 60 μM, P<0.001. It counts as cell-based, mice. The method, then: (§1) (A(1)) Representative Western Blot bands of Cox2 are shown with tubulin as reference. (A(2)) COX-2 levels were measured in RAW 264.7 cells incubated for 24 hrs. with LPS in the presence or in the absence of IA (60 μM/ml); **, p<0.001. (B) Murine peritoneal macrophages were activated by LPS (1 μg/ml for 24 hrs.) in absence of IA or in the presence of IA at indicated concentrations. NO generation was determined by measuring the nitrite accumulated in the supernatants; **, p<0.001. (C) Generation of ROS by RAW 264.7 macrophages (5×10^5 cells in 0.5 ml Hanks' balanced salt solution) was measured by chemiluminescence. Cells were pre-incubated with various doses of IA for 24 hrs before luminol (10 μl) and zymosan (30 μl) were added to the tubes; *, p<0.05; **, p<0.01; ***, p<0.001
COX-2 Production. RAW 264.7 cells were treated with subtoxic concentrations (confirmed by MTT colorimetric assay) of incensole acetate (10-20 μg/ml, dissolved in ethanol and further diluted in medium) and incubated with lipopolysaccharide (LPS, E. coli 1 μg/ml for 24 hs, Sigma, Israel) for 16-24 hrs. […]
Proteins were extracted from cells in NP-40 lysis buffer (50 mM Tris/HCl pH 7.5, 150 mM NaCl, 0.1% SDS, 1% NP-40, 10 mM EDTA, 1 mM phenylmethylsulfonylfluoride (PMSF), and 10 mM DTT). Total protein concentration was determined using the Bradford method and the lysates were analyzed by Western blotting.

The target in another experiment is TRPV1 (Homo sapiens, UniProt Q8NER1). Briefly: Calcium imaging of TRPV1-transfected HEK293 cells. It counts as cell-based. The note with it: IA 100 μM, compared to vehicle. The method, then: All error bars indicate SEM; p values in all subfigures but c represent analysis with one-way ANOVA Bonferroni's post hoc.
Chain of TRPV1 (Q8NER1 whole entry): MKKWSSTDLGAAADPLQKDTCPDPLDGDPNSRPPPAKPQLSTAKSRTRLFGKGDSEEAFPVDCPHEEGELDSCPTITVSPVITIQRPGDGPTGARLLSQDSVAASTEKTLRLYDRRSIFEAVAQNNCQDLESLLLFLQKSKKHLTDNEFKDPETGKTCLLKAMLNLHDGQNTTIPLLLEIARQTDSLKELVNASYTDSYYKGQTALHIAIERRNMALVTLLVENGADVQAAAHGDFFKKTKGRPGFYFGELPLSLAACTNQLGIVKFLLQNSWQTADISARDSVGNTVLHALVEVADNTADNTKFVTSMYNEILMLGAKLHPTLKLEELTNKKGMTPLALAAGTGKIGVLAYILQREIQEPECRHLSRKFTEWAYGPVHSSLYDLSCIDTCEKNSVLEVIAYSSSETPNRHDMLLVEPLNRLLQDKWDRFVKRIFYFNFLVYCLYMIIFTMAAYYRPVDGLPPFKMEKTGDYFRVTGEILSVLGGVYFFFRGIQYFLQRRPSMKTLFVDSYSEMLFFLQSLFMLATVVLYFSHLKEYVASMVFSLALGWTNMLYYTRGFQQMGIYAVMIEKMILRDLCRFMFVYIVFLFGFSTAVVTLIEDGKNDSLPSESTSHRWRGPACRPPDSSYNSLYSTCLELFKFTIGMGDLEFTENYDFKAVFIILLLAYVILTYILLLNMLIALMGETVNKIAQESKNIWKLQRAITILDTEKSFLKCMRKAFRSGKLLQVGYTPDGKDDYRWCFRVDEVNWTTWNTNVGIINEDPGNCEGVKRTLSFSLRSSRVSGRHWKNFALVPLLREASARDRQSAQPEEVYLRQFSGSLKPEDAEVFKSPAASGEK
Human HEK 293 cells stably expressing TRPV1 were a kind gift from Merck Research Laboratories (Whitehouse Station, N.J.). Cells were cultured in minimal essential medium, Eagle, modified with non-essential amino acids, 1 mM sodium pyruvate, 2 mM L-glutamine and 1.5 g/L sodium bicarbonate (ATCC, Mabassas, Va.), containing 1% Penicillin-streptomycin, and 10% foetal bovine serum. Cells were passaged three times a week using Trypsin-EDTA 1× (Invitrogen, Carlsbad, Calif.) and grown under 5% CO2 at 37° C.
Calcium imaging of HEK 293 cells. TRPV1, TRPV3, and TRPV4 expressing HEK293 cells were plated 24-48 h before imaging in 96 well plates, loaded with 3 μM Fura-2 AM and imaged as previously described [O'dell, D. K., Rimmerman, N., Pickens, S. R. & Walker J. M. Fatty acyl amides of endogenous tetrahydroisoquinolines are active at the recombinant human TRPV1 receptor. […] Med. Chem. 15, 6164-6169 (2007)].

Another experiment relates to NO generation. The experiment is described as follows: Nitric oxide (NO) levels in LPS-activated murine peritoneal macrophages. It counts as cell-based, mice. The method, then: as §1
Peritoneal macrophages were harvested from C57BL/6 female mice four days after intraperitoneal injection of 1.5 ml of a 3% thioglycollate medium (Difco, N.J., USA). […]
Nitric Oxide (NO) Levels. […] NO generation was determined by measuring the nitrite accumulated in the supernatants (100 μl) of the IA-treated macrophages as follows. […] Following 10 min of incubation at room temperature, the color production was measured at 550 nm with an ELISA reader. The concentration of the nitrite was calculated according to a standard curve.

Experiment [1] has as its system IKKα and IKKβ phosphorylation. Briefly: TNFα-induced phosphorylation of the IKKs in HeLa cells. The note with it: TNFα 20 ng/ml for 20 minutes, IA 140 μM. It counts as cell-based. The method, then:
(A) IA inhibits IKK phosphorylation. HeLa cells were stimulated with TNFα (20 ng/ml for 20 minutes) in the absence or presence of IA (140 μM) as shown. Whole cell extracts were prepared and analyzed for the phosphoryation of IKKα and IKKβ by Western blotting (WB). (B) HeLa cells were stimulated with TNFα (20 ng/ml for 20 minutes) in the absence or presence of IA (140 μM). Cells were fixed and then stained with rabbit anti-p65 followed by anti-rabbit Rhodamine Red-labeled secondary Ab. and with DAPI for nuclei location (not shown). (B1) HeLa cells, no treatment; (B2) HeLa cells +IA; (B3) HeLa cells +TNF; (B4) HeLa cells +IA+TNF. The cells were examined under an Axioscope Zeiss microscope with a plan-Neofluor * 60 lens. Results of one of three independent experiments are shown.
Western Blot (WB). Following separation by SDS-PAGE, proteins were blotted to a polyvinylidene difluoride (PVDF) membrane (Millipore). The membrane was blocked in 5% (w/v) milk powder and then incubated in TBST containing the primary antibody and 2% (w/v) milk powder. All phospho-specific antibodies were purchased from Cell signaling Inc. αIκBa, αp65 and αCOX2 antibodies from Santa Cruz Inc. (California, USA). […]

On to `CC(=O)OC1CC/C(C)=C/CC/C(C)=C/CC2(C(C)C)CCC1(C)O2` (centres unmarked) [IA, incensole acetate], for which the COX-2 production entry with COX-2 was “inhibited”. Further, the “calcium influx in TRPV1-transfected HEK293 cells” value at TRPV1 is on record as “very small influx of calcium”. Further, the “NO generation (nitrite in supernatants), dose dependence” value in the experiment on NO generation (LPS 1 μg/ml for 24 hrs, ANOVA P<0.0001) is recorded as “inhibited NO generation in a dose dependent manner”. The NO production result in the experiment on NO generation (at 80 μM, p=0.0022) is “about 45%”. For the same compound, the IKKα/IKKβ phosphorylation result in experiment [1] is “inhibition of IKKα/IKKβ phosphorylation”.

The values above are taken from patent US20100099756A1, “USES OF INCENSOLE, INCENSOLE ACETATE AND DERIVATIVES THEREOF” (YISSUM RESEARCH DEVELOPMENT COMPANY OF THE HEBREW …, priority 2006, published 2010).
